# Results: patent US20160289280A1, “Fusion protein of recombinant ganoderma immunoregulatory protein and human serum albumin, preparation method thereof, and application thereof” (priority 2013, published 2016)
# Marks after values point to notes of the source that are not given here.
# B1: rLZ-8-Fc1: fusion protein of ganoderma immunoregulatory protein (LZ-8) and human IgG1Fc fragment, SEQ ID NO. 2 (protein)
# chain: RPSDTALIFRLAWDVKKLSFDYTPNWGRGNPNNFIDTVTFPKVLTDKAYTYRVAVSGRNLGVKPSYAVESDGSGKVNFLEYNSGYGIADTNTIGVFVVDPDTNNDFIIAGWNGGGGSSEPKSCDKTHTCPPCPAPELLGGPSVFLFPPKPKDTLMISRTPEVTCVVVDVSHEDPEVKFNWYVDGVEVHNAKTKPREEGYNSTYRVVSVLTVLHGDWLNGKEYKCKVSNKALPAPIEKTISKAKGGPREPGVYTLPPSREEMTKNGVSLTCLVKGFYPSDIAVEWESNGGPENNYKTTPPVLDSDGSFFLYSKLTVDKSRWGGGNVFSCSVMHEALHNHYTGKSLSLSPGK
# modifications: rLZ-8-Fc1 sequence
# B2: GenLei ® Scimax ®: recombinant human granulocyte colony-stimulating factor injection (rhG-CSF), positive medicine (protein, UniProt P09919 31-207, looked up)
# Granulocyte …: TPLGPASSLPQSFLLKCLEQVRKIQGDGAALQEKLVSECATYKLCHPEELVLLGHSLGIPWAPLSSCPSQALQLAGCLSQLHSGLFLYQGLLQALEGISPELGPTLDTLQLDVADFATTIWQQMEELGMAPALQPTQGAMPAFASAFQRRAGGVLVASHLQSFLEVSYRVLRHLAQP
# Assays:
# [1] = tested on: mouse transplanted tumor S180; test: subcutaneous inhibition of mouse transplanted tumor S180; type: in vivo; conditions: positive control 20 mg·kg^−1, abdominally injected
# Description: In vivo experiment: experimental material: mice weighing 18-22 g from Laboratory Animal Center of Jilin University; Ehrlich ascites tumor cell strains are provided by a lab of the inventor; cytoxan (CTX) is from Jiangsu Hengrui Medicine Co., Ltd, whose batch number is 06101921; 5180 ascites tumor and soild tumor experimental groups respectively comprises a normal control group, a negative control group, a positive control group, an rLZ-8 low-dosage group (0.25 mg·kg^−1), an rLZ-8 middle-dosage group (0.5 mg·kg^−1), an rLZ-8 high-dosage group (1 mg·kg^−1), an rLZ-8-HSA low-dosage group (0.25 mg·kg^−1), an rLZ-8-HSA middle-dosage group (0.5 mg·kg^−1), and an rLZ-8-HSA high-dosage group (1 mg·kg^−1), wherein dosages of the rLZ-8-HSA groups are judged from LZ-8 dosage, wherein each group comprises 10 mice.
# tumor inhibition rate (%)=(average tumor weight of control groups−average tumor weight of experimental groups)/average tumor weight of control groups×100%.
# [2] = tested on: mouse melanoma cells B16-F10; test: mouse B16-F10 transplanted tumor model, in situ tumor weight; type: in vivo; conditions: 2.5 mg/kg, 5 days, again after 3 weeks, 28 day cycle
# Description: In vivo experiment: firstly, establishing a mouse tumor mould, wherein mouse melanoma cells B16-F10 is cultured with the DMEM comprising 10% fetal calf serum at 37° C. in a CO2 incubation device; slowly subcutaneously injecting 200 μl B16-F10 cell suspension (comprising 1×10^7 cells) with a 1 ml injector at mouse dorsal-ventral skin, so as to establish a mouse transplanted tumor mould.
# [3] = tested on: platelets; test: treatment of mouse thrombocytopenia caused by cyclophosphamide, platelet count; type: in vivo
# Description: Experimental medicine: preparing a 19.25 μg·kg^−1 and a 9.625 μg·kg^−1 dosage groups of the recombinant ganoderma immunoregulatory protein (rLZ-8) with sterile injection water, and 0.2 ml per mouse; and preparing a 19.25 μg·kg^−1 and a 9.625 μg·kg^−1 dosage groups (judging from the LZ-8) of the fusion protein rLZ-8-HSA of the recombinant ganoderma immunoregulatory protein.
# Positive control medicine: thrombopoietin (THPO) from Shenyang 3SBio Inc., with a dosage of 770 μg·kg^−1/d and 0.2 ml per mouse.
# Chemotherapy medicine: cyclophosphamide (Cy) from Jiangsu Hengrui Medicine Co., Ltd, whose batch number is 12112121, 200 mg/bottle; preparing into 100 mg·kg^−1, 0.2 ml per mouse with sterile injection water.
# Platelet dilution: urea: 1.3 g; sodium citrate: 0.5 g; formaldehyde: 0.1 ml; adding distilled water to 100 ml for mixing, then filtering for further utilization.
# Experimental method: dividing experimental animals into 5 groups, wherein each group comprises 10 mice with 5 males and 5 females; except for a normal control group (injected with normal saline having an equal volume), abdominally injecting the cyclophosphamide to the mice with a dosage of 100 mg·kg^−1, 0.2 ml per mouse per day, and lasting for three days; when a platelet quantity decreased to below 300×10^9/L, subcutaneously injecting the rLZ-8, the fusion protein rLZ-8-HAS (19.25 μg·kg^−1, 9.625 μg·kg^−1, 0.2 ml·per mouse per day) and the positive medicine (THPO 770 μg·kg^−1, 0.2 ml·per mouse per day) according to the above groups with corresponding dosages, and injecting the normal saline having the equal volume to the normal control group and a CP group; respectively sampling mouse tail vein blood 3 d, 7 d and 14 d after treatment, counting platelets with high power lens, wherein results thereof are listed in table 7.
# [4] = tested on: mouse spleen cells; test: promotion of mouse spleen cell proliferation, WST-1 method; type: cell-based; conditions: for OD450, promotion of cell proliferation: 24 h, x ± s, n = 9; for promotion of spleen cell proliferation compared with rLZ-8: same protein concentration
# Description: Testing effects of the fusion proteins on mouse spleen cell proliferation by a WST-1 method, which illustrates strength of biological activity, wherein according to the present invention, BALB/c female mice are used, whose weight is controlled at 20-22 g; executing the mice by stretching necks thereof, taking out spleens under a sterile condition, and putting into a plate with 5 ml DMEM comprising 10% calf serum; cracking the spleens with tweezers, filtering tissue suspension with gauze for removing tissue blocks, and preparing cell suspension of spleen cells; adding 100 μl the tissue suspension into 900 μl 2% glacial acetic acid for counting with a microscope; adjusting a cell concentration to 5×10^6/ml with DMEM comprising 2% calf serum; respectively preparing the fusion proteins and the rLZ-8 with same molar concentration gradient, wherein there are 3 gradient concentrations, each concentration occupies 9 wells with 100 μl per well; adding tissue suspension with a concentration of 5×10^6/ml with 100 μl per well; shaking for evenly mixing, and then putting into a 37° C., 5% CO2 incubation device to incubate for 24 h; after incubation, adding WST-1 with 20 μl per well; putting into the 37° C., 5% CO2 incubation device to incubate for 3 h, then testing OD450 (with a BIO-RAD); wherein results are listed in table 1.
# [5] = tested on: leukocytes; test: treatment of rat models with leucopenia caused by cyclophosphamide, leukocyte count; type: in vivo; conditions: positive medicine 13.5 μg/ml, 0.1 ml per rat
# Text: Utilizing Wistar rats in the experiments, wherein 18 rats weighing about 100 g are utilized. […] The experiment has an rLZ-8 low-dosage group, an rLZ-8 middle-dosage group, an rLZ-8 high-dosage group, an rLZ-8-HSA low-dosage group, an rLZ-8-HSA middle-dosage group, an rLZ-8-HSA high-dosage group, and a positive medicine control group (utilizing the […]®). […] On the third day, the blood is sampled from the tail vein, and the leukocytes are counted by a cytoanalyzer. After successful modeling, the rats of each the group are respectively treated with the rLZ-8, the three kinds of the fusion proteins, or the positive medicine (the […]®) with the corresponding dosage, and the equal sterile saline is given to the rats of the normal control and a CP group. The blood is sampled from the tail vein on the first, third and seventh treatment days, and the leukocytes are counted by the cytoanalyzer. Medicine efficacy is analyzed according to a number difference of the leukocyte between before and after the treatment.
# [6] = 770 μg·kg^−1 subcutaneously per day
molecule,measurement,setting,value
"O=P1(N(CCCl)CCCl)NCCCO1 (stereo not drawn) [CTX, cyclophosphamide, reference compound]",Inhibition rate,[1],64.3%
same,tumor weight,[1],0.36 ± 0.02 g
"CN(C)/N=N/c1[nH]cnc1C(N)=O [dacarbazine, reference compound]",tumor inhibition rate,[2],62.57 ± 0.27%
same,tumor weight,[2],0.52 ± 0.12 g
"THPO: thrombopoietin (THPO) from Shenyang 3SBio Inc., positive control medicine [reference compound]",platelets after,"[3]; 770 μg·kg^−1 group, after cyclophosphamide, before treatment",284 ± 0.19 *10^9/L
same,platelets before,"[3]; 770 μg·kg^−1 group, baseline before cyclophosphamide",851 ± 0.34 *10^9/L
same,platelets 3rd day,[3]; [6],390 ± 0.38 *10^9/L
same,platelets 7th day,[3]; [6],420 ± 0.32 *10^9/L
same,platelets 14th day,[3]; [6],689 ± 0.65 *10^9/L
"rLZ-8-Fc4: fusion protein of ganoderma immunoregulatory protein (LZ-8) and human IgG4Fc fragment, SEQ ID NO. 3","OD450, promotion of cell proliferation",[4]; protein 5.0 × 10^−9 mol/L,0.452 ± 0.43
same,"OD450, promotion of cell proliferation",[4]; protein 10.0 × 10^−9 mol/L,0.840 ± 0.27
same,"OD450, promotion of cell proliferation",[4]; protein 15.0 × 10^−9 mol/L,0.929 ± 0.21
same,promotion of spleen cell proliferation compared with rLZ-8,[4],significantly decreased
B1,"OD450, promotion of cell proliferation",[4]; protein 5.0 × 10^−9 mol/L,0.543 ± 0.26
same,"OD450, promotion of cell proliferation",[4]; protein 10.0 × 10^−9 mol/L,0.937 ± 0.29
same,"OD450, promotion of cell proliferation",[4]; protein 15.0 × 10^−9 mol/L,1.114 ± 0.31
same,promotion of spleen cell proliferation compared with rLZ-8,[4],significantly decreased
B2,leukocyte number on the first treatment day,[5],6.4e+09 L⁻¹
same,leukocyte number on the seventh treatment day,[5],1.117e+10 L⁻¹
same,leukocyte number on the third treatment day,[5],1.183e+10 L⁻¹
same,leukocyte number before,"[5]; baseline after CP modeling, before treatment",4.55e+09 L⁻¹
